Drawing on ChEMBL document CHEMBL3351289, “4-Substituted quinazoline derivatives as novel EphA2 receptor tyrosine kinase inhibitors” (Bioorg Med Chem Lett, 2014), this text covers inhibition and IC50 for two compounds.

Test [1] addresses T1, Ephrin type-A receptor 2 (Homo sapiens, UniProt P29317). In words: Inhibition of EphA2 (unknown origin) at 10 uM pre-incubated with enzyme for 10 mins before adding peptide substrate and ATP using TK-substrate-biotin and SEB by time-resolved fluorescence resonance energy transfer assay.
The target in test [2] is T1, Ephrin type-A receptor 2. In words: Inhibition of EphA2 (unknown origin) pre-incubated with enzyme for 10 mins before adding peptide substrate and ATP using TK-substrate-biotin and SEB by time-resolved fluorescence resonance energy transfer assay.
The target in test [3] is Epidermal growth factor receptor (Homo sapiens) (UniProt P00533). The experiment in a line: Inhibition of EGFR (unknown origin) at 1 uM.
Chain of Epidermal growth factor receptor (Homo sapiens) (P00533 whole entry): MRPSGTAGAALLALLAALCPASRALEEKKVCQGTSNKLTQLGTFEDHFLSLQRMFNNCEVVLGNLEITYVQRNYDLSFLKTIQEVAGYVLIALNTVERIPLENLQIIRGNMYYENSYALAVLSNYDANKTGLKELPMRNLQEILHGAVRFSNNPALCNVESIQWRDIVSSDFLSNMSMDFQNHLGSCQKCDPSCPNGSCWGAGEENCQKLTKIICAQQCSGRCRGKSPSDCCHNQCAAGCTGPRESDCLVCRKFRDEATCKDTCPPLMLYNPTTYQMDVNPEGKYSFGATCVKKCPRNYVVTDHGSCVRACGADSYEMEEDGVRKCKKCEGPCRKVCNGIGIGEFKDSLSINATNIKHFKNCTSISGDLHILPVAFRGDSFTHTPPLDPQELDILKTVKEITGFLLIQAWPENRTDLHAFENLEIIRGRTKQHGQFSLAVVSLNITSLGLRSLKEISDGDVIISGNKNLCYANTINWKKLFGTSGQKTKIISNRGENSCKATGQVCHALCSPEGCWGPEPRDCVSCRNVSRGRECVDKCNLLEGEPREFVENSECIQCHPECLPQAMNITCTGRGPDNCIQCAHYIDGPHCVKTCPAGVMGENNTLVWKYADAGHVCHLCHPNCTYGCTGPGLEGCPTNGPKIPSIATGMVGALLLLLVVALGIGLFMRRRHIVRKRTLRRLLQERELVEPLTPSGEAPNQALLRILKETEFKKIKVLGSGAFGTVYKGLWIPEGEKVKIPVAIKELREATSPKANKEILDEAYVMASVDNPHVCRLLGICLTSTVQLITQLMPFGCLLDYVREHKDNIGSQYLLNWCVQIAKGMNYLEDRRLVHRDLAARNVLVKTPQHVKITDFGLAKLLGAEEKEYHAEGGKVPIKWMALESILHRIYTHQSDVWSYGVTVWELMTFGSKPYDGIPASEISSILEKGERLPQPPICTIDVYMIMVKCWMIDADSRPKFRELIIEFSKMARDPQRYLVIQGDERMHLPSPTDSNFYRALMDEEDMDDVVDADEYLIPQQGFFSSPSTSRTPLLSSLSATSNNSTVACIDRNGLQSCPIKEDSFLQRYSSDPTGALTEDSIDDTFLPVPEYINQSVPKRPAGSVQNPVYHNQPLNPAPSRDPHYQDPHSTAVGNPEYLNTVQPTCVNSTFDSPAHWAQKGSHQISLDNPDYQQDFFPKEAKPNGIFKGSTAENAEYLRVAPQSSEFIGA
For test [4], the target named is Receptor tyrosine-protein kinase erbB-2 (Homo sapiens) (UniProt P04626). In words: Inhibition of HER2 (unknown origin) at 1 uM.
Test [5] addresses Insulin-like growth factor 1 receptor (Homo sapiens) (UniProt P08069). In words: Inhibition of IGF1R (unknown origin) at 1 uM.
In test [6] the target is Insulin receptor (Homo sapiens) (UniProt P06213). The experiment in a line: Inhibition of InsR (unknown origin) at 1 uM.
Chain of Insulin receptor (Homo sapiens) (P06213 28-758 limits assumed): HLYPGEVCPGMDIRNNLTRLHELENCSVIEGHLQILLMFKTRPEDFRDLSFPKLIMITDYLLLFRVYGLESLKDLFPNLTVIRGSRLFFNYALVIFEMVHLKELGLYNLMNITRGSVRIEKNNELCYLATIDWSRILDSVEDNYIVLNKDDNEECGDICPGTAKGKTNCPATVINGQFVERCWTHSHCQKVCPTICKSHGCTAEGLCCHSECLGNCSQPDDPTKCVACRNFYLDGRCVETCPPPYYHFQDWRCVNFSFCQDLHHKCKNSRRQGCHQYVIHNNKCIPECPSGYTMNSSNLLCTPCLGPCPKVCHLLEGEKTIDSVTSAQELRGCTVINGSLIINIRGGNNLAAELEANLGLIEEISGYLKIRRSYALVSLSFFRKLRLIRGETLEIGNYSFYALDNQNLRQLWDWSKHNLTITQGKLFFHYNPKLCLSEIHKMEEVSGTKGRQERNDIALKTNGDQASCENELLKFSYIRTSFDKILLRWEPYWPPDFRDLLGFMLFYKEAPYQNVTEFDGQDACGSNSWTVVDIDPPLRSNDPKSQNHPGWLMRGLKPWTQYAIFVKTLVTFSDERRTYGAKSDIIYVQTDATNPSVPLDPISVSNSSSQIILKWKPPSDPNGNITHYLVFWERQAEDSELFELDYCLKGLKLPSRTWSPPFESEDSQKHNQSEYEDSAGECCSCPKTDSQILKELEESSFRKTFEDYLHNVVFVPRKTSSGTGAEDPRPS
Chain of Insulin receptor (Homo sapiens) (P06213 763-1382 limits assumed): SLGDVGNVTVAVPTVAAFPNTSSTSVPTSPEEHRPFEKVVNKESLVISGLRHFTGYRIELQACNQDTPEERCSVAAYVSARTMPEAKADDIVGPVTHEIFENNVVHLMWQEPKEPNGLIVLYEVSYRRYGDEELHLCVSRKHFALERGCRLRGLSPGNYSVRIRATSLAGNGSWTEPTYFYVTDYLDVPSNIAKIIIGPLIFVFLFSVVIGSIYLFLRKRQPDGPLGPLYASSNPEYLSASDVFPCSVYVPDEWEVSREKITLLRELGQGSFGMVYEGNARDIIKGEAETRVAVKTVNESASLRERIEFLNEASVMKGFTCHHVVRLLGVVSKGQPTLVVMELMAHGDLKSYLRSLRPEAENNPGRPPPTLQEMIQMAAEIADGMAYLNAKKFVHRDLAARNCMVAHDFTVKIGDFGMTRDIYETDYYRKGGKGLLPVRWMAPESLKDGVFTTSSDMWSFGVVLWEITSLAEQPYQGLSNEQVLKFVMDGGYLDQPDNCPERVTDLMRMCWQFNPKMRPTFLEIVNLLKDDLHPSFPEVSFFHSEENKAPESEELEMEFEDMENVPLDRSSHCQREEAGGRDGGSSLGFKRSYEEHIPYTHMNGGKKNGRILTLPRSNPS
Test [7] deals with Vascular endothelial growth factor receptor 2 (Homo sapiens) (UniProt P35968). The experiment in a line: Inhibition of KDR (unknown origin) at 1 uM.
Test [8] addresses Platelet-derived growth factor receptor alpha (Homo sapiens) (UniProt P16234). In words: Inhibition of PDGFRalpha (unknown origin) at 1 uM.
Test [9] deals with Mitogen-activated protein kinase 1 (Homo sapiens) (UniProt P28482). The experiment in a line: Inhibition of ERK2 (unknown origin) at 1 uM.
Chain of Mitogen-activated protein kinase 1 (Homo sapiens) (P28482 whole entry): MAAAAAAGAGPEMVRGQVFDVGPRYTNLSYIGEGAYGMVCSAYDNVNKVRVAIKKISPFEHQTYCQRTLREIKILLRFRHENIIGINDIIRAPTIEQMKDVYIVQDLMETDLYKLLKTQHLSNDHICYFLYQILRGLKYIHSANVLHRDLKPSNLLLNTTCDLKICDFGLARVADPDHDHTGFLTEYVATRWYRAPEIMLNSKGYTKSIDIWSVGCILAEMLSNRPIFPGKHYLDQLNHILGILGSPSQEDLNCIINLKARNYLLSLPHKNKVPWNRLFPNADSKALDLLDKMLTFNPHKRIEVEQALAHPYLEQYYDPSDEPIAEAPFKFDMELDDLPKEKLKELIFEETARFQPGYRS
Test [10] has as its target Glycogen synthase kinase-3 beta (Homo sapiens) (UniProt P49841). The experiment in a line: Inhibition of GSK3beta (unknown origin) at 1 uM.
Test [11] concerns the target Mitogen-activated protein kinase 8 (Homo sapiens) (UniProt P45983). In words: Inhibition of JNK1 (unknown origin) at 1 uM.
The target of test [12] is Mitogen-activated protein kinase 10 (Homo sapiens) (UniProt P53779). The experiment in a line: Inhibition of JNK3 (unknown origin) at 1 uM.
Test [13] concerns the target Mitogen-activated protein kinase 14 (Homo sapiens) (UniProt Q16539). In words: Inhibition of p38alpha (unknown origin) at 1 uM.
Test [14] has as its target Mitogen-activated protein kinase 11 (Homo sapiens) (UniProt Q15759). The experiment in a line: Inhibition of p38beta (unknown origin) at 1 uM.
Test [15] concerns the target T1, Ephrin type-A receptor 2. The experiment in a line: Inhibition of EphA2 (unknown origin) expressed in […] cells assessed as reduction in wound closure after 72 hrs by phase contrast microscopy based would healing assay. The format is cell-based.

The structures appear in SMILES notation.

T1 sequence (P29317 whole entry): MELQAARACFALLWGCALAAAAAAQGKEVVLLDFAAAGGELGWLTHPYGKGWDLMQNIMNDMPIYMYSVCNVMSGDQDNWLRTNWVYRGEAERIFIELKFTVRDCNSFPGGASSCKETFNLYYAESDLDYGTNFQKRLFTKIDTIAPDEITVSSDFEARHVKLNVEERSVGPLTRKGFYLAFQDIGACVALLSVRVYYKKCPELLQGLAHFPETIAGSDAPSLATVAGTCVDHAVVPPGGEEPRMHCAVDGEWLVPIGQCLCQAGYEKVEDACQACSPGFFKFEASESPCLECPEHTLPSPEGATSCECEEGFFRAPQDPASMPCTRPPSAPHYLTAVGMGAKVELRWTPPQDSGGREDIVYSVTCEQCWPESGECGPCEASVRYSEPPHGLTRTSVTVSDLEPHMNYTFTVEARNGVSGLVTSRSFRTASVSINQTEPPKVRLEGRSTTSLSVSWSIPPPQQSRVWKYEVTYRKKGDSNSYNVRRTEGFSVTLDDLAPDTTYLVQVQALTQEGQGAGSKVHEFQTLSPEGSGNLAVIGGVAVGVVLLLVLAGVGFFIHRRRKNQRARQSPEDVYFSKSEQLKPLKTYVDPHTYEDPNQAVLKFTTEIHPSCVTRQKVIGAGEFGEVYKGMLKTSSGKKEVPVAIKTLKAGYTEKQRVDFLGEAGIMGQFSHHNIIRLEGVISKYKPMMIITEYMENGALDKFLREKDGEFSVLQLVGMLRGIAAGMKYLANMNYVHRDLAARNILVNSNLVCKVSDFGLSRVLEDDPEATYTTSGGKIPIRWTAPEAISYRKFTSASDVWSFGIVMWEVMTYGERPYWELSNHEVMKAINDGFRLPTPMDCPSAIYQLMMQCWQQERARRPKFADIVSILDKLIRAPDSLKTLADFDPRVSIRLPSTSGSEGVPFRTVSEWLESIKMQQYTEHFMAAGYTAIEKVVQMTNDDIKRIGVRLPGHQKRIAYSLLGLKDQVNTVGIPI
Chain of Mitogen-activated protein kinase 8 (Homo sapiens) (P45983 whole entry): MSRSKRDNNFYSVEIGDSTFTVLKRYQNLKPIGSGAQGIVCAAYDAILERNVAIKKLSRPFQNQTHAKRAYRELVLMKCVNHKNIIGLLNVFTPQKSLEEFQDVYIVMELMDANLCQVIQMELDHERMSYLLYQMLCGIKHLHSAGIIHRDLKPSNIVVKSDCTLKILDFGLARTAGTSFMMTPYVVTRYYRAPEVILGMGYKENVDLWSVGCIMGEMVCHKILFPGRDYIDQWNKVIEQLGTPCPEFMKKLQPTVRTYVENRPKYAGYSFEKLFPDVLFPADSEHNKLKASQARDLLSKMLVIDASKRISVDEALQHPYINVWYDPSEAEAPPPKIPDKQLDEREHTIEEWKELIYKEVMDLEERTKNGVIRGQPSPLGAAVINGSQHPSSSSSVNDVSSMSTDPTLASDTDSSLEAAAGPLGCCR
Chain of Mitogen-activated protein kinase 14 (Homo sapiens) (Q16539 whole entry): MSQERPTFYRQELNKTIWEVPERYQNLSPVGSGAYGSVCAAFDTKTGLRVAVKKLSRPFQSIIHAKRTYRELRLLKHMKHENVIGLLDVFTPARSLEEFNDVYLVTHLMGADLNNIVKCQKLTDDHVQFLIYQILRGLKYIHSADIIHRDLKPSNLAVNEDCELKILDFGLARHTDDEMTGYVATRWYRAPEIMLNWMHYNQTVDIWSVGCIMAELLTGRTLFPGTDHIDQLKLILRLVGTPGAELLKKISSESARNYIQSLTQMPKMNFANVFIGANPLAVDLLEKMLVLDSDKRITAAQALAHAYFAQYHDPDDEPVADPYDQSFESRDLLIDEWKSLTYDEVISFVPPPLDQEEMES
Chain of Mitogen-activated protein kinase 11 (Homo sapiens) (Q15759 whole entry): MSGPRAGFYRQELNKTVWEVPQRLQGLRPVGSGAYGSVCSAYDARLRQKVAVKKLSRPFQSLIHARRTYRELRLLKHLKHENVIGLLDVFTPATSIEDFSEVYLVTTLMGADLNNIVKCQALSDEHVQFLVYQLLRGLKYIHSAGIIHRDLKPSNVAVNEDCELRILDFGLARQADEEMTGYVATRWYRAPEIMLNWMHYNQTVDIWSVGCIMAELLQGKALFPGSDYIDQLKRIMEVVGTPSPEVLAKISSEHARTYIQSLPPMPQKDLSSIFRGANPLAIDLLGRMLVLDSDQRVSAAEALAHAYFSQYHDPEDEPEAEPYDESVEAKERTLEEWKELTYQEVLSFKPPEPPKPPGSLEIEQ

`CCCc1ccc(Nc2ncnc3cc(OCC4CNCCO4)c(OC)cc23)cc1` (stereo not given): the inhibition (as a rule, the share of the control response that was lost under treatment) in [1] stood at 49%.

For `COc1cc2c(Nc3ccc(Cl)cc3F)ncnc2cc1OCC1CNCCO1` (stereo not given), in [2], half-maximal inhibition (IC50) was put at 160 nM. Further, the inhibition was found to be 100% in test [3]; 22% in test [4]; 7% in [5]; 15% in test [6]; 76% in test [7]; 17% in test [8]. Moreover, the inhibition in test [9] was 0%; in [10], 11%; in [11], 0%; in test [12], 0%; in test [13], 16%; in test [14] it was 2%. Also, the inhibition result in test [15] was “Dose-dependent effect”.
